“Also recorded” adds a separate entry of the source.
Legend:
[1] = tested on: DRG neurons (axon vs. cell body compartment); assay: Campenot chamber local axon degeneration (anti-NGF in axon compartment); assay type: cell-based, mouse
Description: Teflon dividers (Tyler Research) were cleaned by washing in water and wiping them clean of any residual grease. Dividers were then soaked in Nochromix (Godax Laboratories)/sulfuric acid overnight, rinsed five times in distilled and autoclaved water (SQ water), boiled for 30 minutes, and then air-dried before use
Mouse laminin (5 μg/ml in sterile filtered water; Invitrogen) was added to PDL coated 35 mm dishes (BD Biosciences) and they were incubated for 1 hour at 37° C., followed by two rinses in SQ water. The dishes were vacuum-dried and then air-dried in a laminar flow hood for 15 minutes. Prepared dishes were then scored with a pin rake (Tyler Research). […] High vacuum grease (VWR) was added to each Teflon divider under a dissection scope. The laminin coated PDL dishes were inverted and dropped onto the Teflon divider, with additional pressure added by use of a toothpick in the non-track-containing regions. Dishes were incubated for 1 hour at 37° C. Five hundred microliters of NBM+MC (50 ng/ml NGF) solution was added to each of the side compartments, and a grease barrier was added in front of the center cell slot.
Free E13.5 spinal cords were dissected from mouse embryos and placed into NBM+MC (25 ng/ml NGF) solution. DRGs were detached from the spinal cord with a tungsten needle. An NBM+MC-lubricated P200 pipette was used to move DRGs into a 1.5 ml tube. DRGs were pelleted with a tabletop centrifuge for 30 seconds. The supernate was discarded and 0.05% Trypsin/EDTA (cold) was added. The pellet was resolubilized with a pipette and incubated at 37° C. for 15 minutes with constant agitation (650 RPM). The sample was again centrifuged and the supernate discarded. The pellet was resuspended in warm NBM+MC (50 ng/ml NGF) solution and triturated with a flamed glass pipette 20 times, followed by trituration with a fire-bored glass pipette another 20 times. The samples were again centrifuged and the resulting pellets were resuspended in 0.5 ml NBM+MC (50 ng/ml NGF) solution. The cells were diluted to a final concentration of 2.5×10^6 cells/ml. The cell suspensions were loaded into a 1 ml syringe with a 22 gauge needle. The center slot of the Campenot divider was filled using the syringe (to a volume of at least 50 μl). The Campenot chamber was incubated overnight at 37° C. 2.5 ml NGF+MC (50 ng/ml NGF) solution was added to the center compartment and the grease gate was removed. The outer medium (cell body compartment) was replaced after three days with 2.5 ml NBM+MC medium (with 25 ng/ml NGF). After five days in culture, one distal compartment was washed three times with warmed NBM+MC (no NGF) solution. After the third wash, 500 μl NBM+MC (no NGF) solution was added to the axon compartment in combination with either 0.5% DMSO or an inhibitor. The cell body compartment was replaced with 2.5 ml NBM+MC medium (with 25 ng/ml NGF) containing either 0.5% DMSO or inhibitor.
After 28 hours of anti-NGF antibody treatment, 8% PFA/30% sucrose solution (see above) was added directly to the culture medium at a 1:1 dilution and incubated for 30 minutes. The Teflon divider was removed after the first 15 minutes of addition. The system was washed once with 2.5 ml PBS prior to immunostaining. Neurons were blocked in 5% BSA/0.2% triton in PBS for 30 minutes. The primary antibody Tuj1 (Covance) was added to a final dilution of 1:1000 in PBS containing 2% BSA and incubated overnight at 4° C. The dish was washed once with PBS. […] The dish was washed twice with PBS, and a 22×22 mm coverslip (VWR) was added with 350 μl of fluoromount G (Electron Microscopy Sciences). The neurons were visualized by use of a fluorescence microscope.
As described above, E13.5 DRGs were isolated and grown for 5 days in a Campenot chamber.

[2] = tested on: cerebellar granule neurons (CGNs); assay: serum deprivation/KCl reduction degeneration of cerebellar granule neurons; assay type: cell-based, mouse; settings: 5 mM KCl, 24 hours
[3] = target: ErbB kinase; settings: read-out: Cellular IC50; heregulin induced tyrosine phosphorylation, MDA-MB-453 cells; published source; cited from earlier work
[4] = target: ErbB kinase (Homo sapiens, UniProt P04626); settings: protein tyrosine phosphorylation, 3T3-Her2 cells; published source; read-out: Cellular IC50; cited from earlier work
ErbB kinase (Homo sapiens, UniProt P04626), sequence (P04626 23-1255): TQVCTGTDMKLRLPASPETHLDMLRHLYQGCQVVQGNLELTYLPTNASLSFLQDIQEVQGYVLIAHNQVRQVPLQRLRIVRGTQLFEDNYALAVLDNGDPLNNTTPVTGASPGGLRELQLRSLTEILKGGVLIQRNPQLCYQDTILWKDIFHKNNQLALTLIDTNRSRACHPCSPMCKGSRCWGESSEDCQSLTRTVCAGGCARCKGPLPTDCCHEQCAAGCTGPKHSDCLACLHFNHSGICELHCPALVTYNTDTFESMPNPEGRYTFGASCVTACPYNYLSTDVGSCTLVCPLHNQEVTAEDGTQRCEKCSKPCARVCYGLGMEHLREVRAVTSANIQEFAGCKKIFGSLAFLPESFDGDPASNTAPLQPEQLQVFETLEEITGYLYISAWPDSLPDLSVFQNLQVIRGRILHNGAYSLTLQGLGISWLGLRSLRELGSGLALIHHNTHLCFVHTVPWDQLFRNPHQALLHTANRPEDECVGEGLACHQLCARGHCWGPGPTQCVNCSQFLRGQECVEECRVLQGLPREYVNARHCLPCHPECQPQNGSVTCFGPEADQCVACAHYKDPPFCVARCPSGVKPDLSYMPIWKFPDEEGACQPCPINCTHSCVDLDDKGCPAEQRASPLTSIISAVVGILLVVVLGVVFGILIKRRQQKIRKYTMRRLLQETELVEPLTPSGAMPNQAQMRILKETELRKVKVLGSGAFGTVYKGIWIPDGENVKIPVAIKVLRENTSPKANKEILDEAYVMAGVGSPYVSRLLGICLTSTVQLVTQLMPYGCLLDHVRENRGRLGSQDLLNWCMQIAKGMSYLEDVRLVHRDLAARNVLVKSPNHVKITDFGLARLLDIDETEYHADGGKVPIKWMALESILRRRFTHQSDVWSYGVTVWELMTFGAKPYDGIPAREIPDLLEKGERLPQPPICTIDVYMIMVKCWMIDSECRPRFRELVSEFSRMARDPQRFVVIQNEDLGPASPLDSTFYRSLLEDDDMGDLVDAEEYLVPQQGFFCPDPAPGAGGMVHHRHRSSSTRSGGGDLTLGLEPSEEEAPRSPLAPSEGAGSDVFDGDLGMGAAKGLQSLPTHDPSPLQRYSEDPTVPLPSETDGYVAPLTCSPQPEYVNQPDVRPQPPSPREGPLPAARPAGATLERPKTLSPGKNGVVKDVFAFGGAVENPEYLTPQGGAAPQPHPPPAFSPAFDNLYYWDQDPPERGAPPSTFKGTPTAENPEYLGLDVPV

[5] = peripheral neuropathy in patients treated with paclitaxel (adverse event analysis); assay type: in vivo, human; settings: combination with paclitaxel; first 400 patients enrolled; placebo+paclitaxel 26.4%; p=0.012 Fisher's exact
Text: Tarceva® (erlotinib) is an EGFR kinase inhibitor. Treatment of patients with paclitaxel and other chemotherapeutic agents is known to lead to peripheral neuropathy (reviewed in Wilkes, Semin. Oncol. Nurs. 23(3):162-173, 2007).

[6] = tested on: dorsal spinal cord explants; assay: dorsal spinal cord (DSC) explant degeneration; assay type: cell-based; settings: 3.4 μM, 11.1 μM, 33.3 μM, and 100 μM
Description: DSCs grow out axons over a period of days, but if they are not rescued with the addition of a survival factor, they will eventually degenerate.

[7] = toxin-induced degeneration of sympathetic neurons (MTT assay); assay type: cell-based; settings: Sprague-Dawley, rat, primary sympathetic neurons from cervical ganglia, 24 hour camptothecin, read-out: % viability (normalized)
Description: Sympathetic cervical ganglia were dissected from postnatal day 1 Sprague-Dawley rats (Charles River Labs) and collected in a dish containing Ultraculture media (Lonza) with 5% fetal bovine serum (Invitrogen). Ganglia were washed twice with serum-free Ultraculture media, and a final concentration of 0.1% trypsin (Worthington) was added and incubated with the tissue at 37° C. for 30 minutes. One percent DNase (Roche) solution in PBS was added to the ganglia and incubated at room temperature for 1-2 minutes. Ganglia were washed with Ultraculture and allowed to settle to the bottom of the tube. All wash media were removed and 1 mL plating media containing Ultraculture, 5% rat serum, 1% penicillin-streptomycin, 1% glutamax, 7 μM cytosine arabinoside (Sigma), and 50 ng/mL nerve growth factor (2.5S, Cedarlane Laboratory) was added to the tube. Ganglia were dissociated by trituration using a pipet (Rainin). The cell slurry was filtered over a […] cell strainer (Falcon) and cell number was counted. Sympathetic neurons were plated at a density of 5000-7500 cells/well (96-well dish), 200,000 cells/well (6-well plate), or 100,000 cells/well (8-well chamber slide) and grown for 4-5 days in 5% CO2 at 37° C. Every other day neurons were fed with fresh plating media containing 5-10 ng/mL NGF.
NGF withdrawal assays were performed as described in Example 14A. […]

[8] = tested on: dorsal root ganglion neurons; assay: EGF addition to DRG neurons maintained in NGF: degeneration; assay type: cell-based, mouse; settings: 100 μg/mL EGF
Description: Experiments were carried out to assess the effects of activation of EGFR by ligands, including EGF.
(§1) Dorsal Root Ganglia (DRG) immunoblots were prepared as follows. Primary cells used in the experiments were Charles River CD-1 E13 Dorsal Root Ganglia (DRG). The cells were maintained in N3/F12 (+25 ng/ml NGF) medium (Ham's F12 (23 ml), N3 supplement (1 ml), glucose (1 ml of 1 M glucose stock), 25 ng/ml Nerve Growth Factor 2.5 S, mouse (Roche 11362348001) in Ham's F12 (stock: 50 μg/ml-80° C.), which was filter-sterilized prior to use). The experiments also employed Triton lysis buffer (20 mM Tris pH 7.5, 150 mM NaCl, 0.1% Triton-X100, 100× Phosphatase inhibitor cocktail I (added fresh), 100× Phosphatase inhibitor cocktail II (added fresh), 1 tablet/10 ml Protease inhibitor tablet (added fresh)).
DRG explants were prepared on Day 0. Embryo dissections were carried out in L15 medium (dissection tools were soaked in 70% isopropanol, and dishes were set up on ice: 10 cm dishes (4 embryos per dish) and one 6 cm dish for spinal cords). E13.5 spinal cords were extracted into DMEM+10% FBS. […]
(§2) The goal of these experiments was to see if activation of EGFR by EGF would be sufficient to drive degeneration. […] To ensure that EGF is capable of activating EGFR/ErbBs in the neuronal cultures used in these assays, ERK activation was assessed (ERK is a downstream target of EGFR).

[9] = tested on: ERK; assay: ERK activation by EGF in DRG cultures (Western blot); assay type: cell-based, mouse; settings: 100 μg/mL EGF; 30 minutes to 1 hour
Description: as §1
DRG explants were prepared on Day 0. […]
Immunoblotting was carried out by aspiration of media with a pipette tip, washing twice with ice-cold sterile PBS, and removal of all PBS using an aspirator with a pipette tip or kimwipes. […] Quantification was carried out by choosing a background method and standard bands that minimize negative/counter-intuitive values: i.e., top/bottom, right/left, user-defined (user-defined). […]
as §2

[10] = tested on: DRGs; assay: G-protein/GPCR inhibitors in NGF withdrawal-induced degeneration in DRGs; assay type: cell-based, mouse; settings: 0.01 μg/mL, 0.1 μg/mL, or 1 μg/mL (FIG. 51)
Description: The assays described herein identified several inhibitors of G-proteins and G-protein coupled receptors (GPCRs) that decrease degeneration in neurons. Experiments were performed in DRGs to verify the role of G-proteins and GPCRs in degeneration pathways. The experimental protocols used in these experiments are the same as those described in Example 14. Pertussis toxin and SCH 202676 were purchased from Tocris Bioscience.

N#C/C(=C\c1ccc(O)c(O)c1)C(=O)NCCCc1ccccc1 [AG555]
formation of varicosities in locally NGF-deprived axons ([1]; 30 μM SB415, 15 μM Act D in cell body compartment, 10 μM AG555, 30 μM SB239 in axon compartment): fewer varicosities | Axon Compartment (protection of NGF-deprived axons) ([1]; inhibitor 10 μM in axon compartment): did not degenerate; also recorded: protected from local degeneration; also recorded: Yes (4) | Cell Body Compartment (protection of NGF-deprived axons) ([1]; inhibitor 10 μM in cell body compartment): failed to prevent degeneration; also recorded: No (4) | protection of cerebellar granule neurons from serum deprivation/KCl reduction ([2]; 1 μM): protect | protection of cerebellar granule neurons from serum deprivation/KCl reduction ([2]; 10 μM): protect | IC50 [3]: 5 nM

C=CC(=O)Nc1ccc2ncnc(Nc3cccc(Br)c3)c2c1 [PD168393]
Axon Compartment (protection of NGF-deprived axons) ([1]; inhibitor 5 μM in axon compartment): Yes (1) | Cell Body Compartment (protection of NGF-deprived axons) ([1]; inhibitor 5 μM in cell body compartment): No (1) | IC50 [4]: 100 nM

C#Cc1cccc(Nc2ncnc3cc(OCCOC)c(OCCOC)cc23)c1 [Tarceva, N-(3-ethynylphenyl)-6,7-bis(2-methoxyethoxy)quinazolin-4-amine]
patients with peripheral neuropathy [5]: 16.3 % of patients | degeneration in dorsal spinal cord explants [6]: can delay; also recorded: blocks

CC[C@@]1(O)C(=O)OCc2c1cc1n(c2=O)Cc2cc3ccccc3nc2-1 [camptothecin]
viability at 24 h [7]: 79%

EGF: ErbB1 ligand added to DRG neurons
induction of axon degeneration [8]: does not cause degeneration | ERK activity (phosphorylation of ERK, Western blot) [9]: increased

Pertussis toxin
degeneration in neurons following NGF withdrawal [10]: decreases

— patent publication US20140328940A1, “MODULATION OF AXON DEGENERATION” (Genentech, Inc., priority 2009, published 2014)
